{"source": "ChEMBL document CHEMBL2407074", "about": "“Three dimensional structure of a bacterial α-l-fucosidase with a 5-membered iminocyclitol inhibitor” (Bioorg Med Chem, 2013)", "key": {"[1]": {"experiment": "Inhibition of Bacteroides thetaiotaomicron recombinant alpha-L-fucosidase using 2-chloro-4-nitrophenyl-alpha-L-fucopyranoside as substrate after 5 mins by Michaelis Menten equation analysis"}, "[2]": {"experiment": "Inhibition of bovine kidney fucosidase", "design": "species or system Bos taurus"}}, "data": [{"compound": "C[C@@H]1N[C@@H](c2nc3ccccc3[nH]2)[C@H](O)[C@@H]1O", "values": [{"measurement": "Ki", "setting": "[1]", "value": 2000, "unit": "nM"}, {"measurement": "Ki", "setting": "[2]", "value": 80, "unit": "nM"}]}]}
